Measurements from patent US20240009191A1, “METHOD AND COMPOSITION FOR THE TREATMENT OF DISEASE” (DIMERIX BIOSCIENCE PTY LTD, priority 2019, published 2024).

Assays:
Type in all cases: cell-based
AT1R-CXCR2 heteromer [1] = molecular target: T1, AT1R-CXCR2 heteromer (Homo sapiens, UniProt P25025+P30556); test: BRET trafficking of CXCR2/Rluc8 (Venus/Kras, Rab5, Rab8) with HA-AT1R, pre-treatment with vehicle or antagonists/inverse agonists; settings: 50 minutes after pre-treatment (10 μM)
T1 sequence (P25025 1-360): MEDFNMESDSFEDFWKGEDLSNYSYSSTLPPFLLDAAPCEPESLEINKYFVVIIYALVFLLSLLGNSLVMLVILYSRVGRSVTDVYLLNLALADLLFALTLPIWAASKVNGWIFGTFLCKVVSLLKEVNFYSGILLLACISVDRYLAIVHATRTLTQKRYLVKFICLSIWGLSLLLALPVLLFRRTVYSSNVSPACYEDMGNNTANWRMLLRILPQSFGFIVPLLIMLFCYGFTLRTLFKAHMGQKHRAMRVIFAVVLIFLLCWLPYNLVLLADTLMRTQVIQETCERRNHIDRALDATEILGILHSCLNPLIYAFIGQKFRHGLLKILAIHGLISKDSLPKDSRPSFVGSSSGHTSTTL
T1 sequence (P30556 1-359): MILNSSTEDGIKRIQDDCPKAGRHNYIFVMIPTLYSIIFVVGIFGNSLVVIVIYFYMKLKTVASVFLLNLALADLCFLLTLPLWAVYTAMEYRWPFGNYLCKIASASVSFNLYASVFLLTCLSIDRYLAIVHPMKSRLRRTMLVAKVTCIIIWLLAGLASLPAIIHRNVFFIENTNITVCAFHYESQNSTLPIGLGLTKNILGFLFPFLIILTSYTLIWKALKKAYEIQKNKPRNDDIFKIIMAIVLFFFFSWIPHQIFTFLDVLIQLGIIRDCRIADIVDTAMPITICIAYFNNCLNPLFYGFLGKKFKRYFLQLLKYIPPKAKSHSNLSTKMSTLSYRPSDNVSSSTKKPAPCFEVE
Experimental: (§1) HEK293FT cells were seeded in 6-well plates at a density of approximately 700,000 cells/well and maintained at 37° C., 5% CO2 in Complete Media (DMEM containing 0.3 mg/ml glutamine, 100 IU/ml penicillin and 100 μg/ml streptomycin (Gibco/Thermo Fisher)) supplemented with 10% fetal calf serum (FCS; Bovogen). Transient transfections were carried out 24 h after seeding using FuGene6™ (Promega) according to manufacturer instructions. 24 h post-transfection, cells were washed with PBS, detached using 0.05% trypsin/0.53 mM EDTA, resuspended in HEPES-buffered phenol red free Complete Media containing 5% FCS and added to a poly-L-lysine-coated white 96-well microplate (Greiner Bio-One). 48 h post-transfection, bioluminescence resonance energy transfer (BRET) assays were carried out following pre-incubation of cells with EnduRen™ (Promega) at a final concentration of 30 μM, at 37° C., 5% CO2 for 2 h. BRET measurements were taken at 37° C. using the LUMlstar™ or CLARIOstar™ (BMG Labtech).
(§2) For antagonist/inverse agonist assays, cells were pre-incubated with EnduRen for 1.5 hours, followed by the addition of vehicle or antagonists/inverse agonists (10 μM) for another 30 minutes.
(§3) The BRET signal observed between interacting proteins is normalized by subtracting the background BRET ratio. […] In the following examples, the second calculation will be used and the signal is described as ligand-induced BRET′. Furthermore, for data shown in FIGS. 4 to 20, all data points in a given set are corrected relative to the final data point prior to agonist treatment, which is fixed to zero. In keys on FIGS. 7 to 20, “>” means “followed by after 50 minutes”, with agonists added at time zero on the x-axes.
(§4) Prior to agonist treatment (added at 0 minutes), a baseline BRET signal was recorded for each of the combinations for 20 minutes. Data were calculated as ligand-induced BRET relative to the ‘vehicle followed by vehicle’ (veh>veh) data set.

AT1R-CXCR2 heteromer [2] = molecular target: T1, AT1R-CXCR2 heteromer; test: BRET Gi coupling, CXCR2/Rluc8, Venus/mGsi and HA-AT1R, pre-treatment with antagonists/inverse agonists; settings: FIGS. 6-15
Experimental: as §1, §2, §3, §4

AT1R-CXCR2 heteromer [3] = molecular target: T2, AT1R-CXCR2 heteromer (Homo sapiens, UniProt P25025+P30556); test: BRET trafficking of AT1R/Rluc8 (Venus/Kras, Rab5) with unlabelled CXCR2, pre-treatment with vehicle or antagonists/inverse agonists; settings: 50 minutes after pre-treatment (10 μM)
T2 sequence (P30556 1-359): T1 sequence (P30556 1-359)
T2 sequence (P25025 1-360): T1 sequence (P25025 1-360)
Experimental: as §1, §2, §3, §4

CCOc1nc2cccc(C(=O)O)c2n1Cc1ccc(-c2ccccc2-c2nc(=O)o[nH]2)cc1 [azilsartan]
effect of both CXCL8 and AngII combined on CXCR2/Rluc8-Venus/Kras BRET (AT1R-CXCR2 heteromer [1]; 10 nM CXCL8 and 100 nM AngII, FIG. 16C, 16E-16H): indistinguishable from the effect observed with CXCL8 only | effect of both CXCL8 and AngII combined on CXCR2/Rluc8-Venus/Rab5 BRET (AT1R-CXCR2 heteromer [1]; 10 nM CXCL8 and 100 nM AngII, FIG. 17C, 17E-17H): indistinguishable from the effect observed with CXCL8 only | effect of both CXCL8 and AngII combined on CXCR2/Rluc8-Venus/Rab8 BRET (AT1R-CXCR2 heteromer [1]; 10 nM CXCL8 and 100 nM AngII, FIG. 18C, 18E-18H): completely inhibited | effect of AngII on CXCR2/Rluc8-Venus/Kras BRET (AT1R-CXCR2 heteromer [1]; 100 nM AngII only, FIG. 16B, 16D): completely inhibited | effect of AngII on CXCR2/Rluc8-Venus/Rab5 BRET (AT1R-CXCR2 heteromer [1]; 100 nM AngII only, FIG. 17B, 17D): completely inhibited | effect of AngII on CXCR2/Rluc8-Venus/Rab8 BRET (AT1R-CXCR2 heteromer [1]; 100 nM AngII only, FIG. 18B, 18D): completely inhibited | effect of CXCL8 only on CXCR2/Rluc8-Venus/mGsi BRET (AT1R-CXCR2 heteromer [2]; 10 nM CXCL8, 50 minutes after pre-treatment with antagonists/inverse agonists (10 μM)): not being altered | effect of CXCL8 and AngII combined on CXCR2/Rluc8-Venus/mGsi BRET (AT1R-CXCR2 heteromer [2]; 10 nM CXCL8 and 100 nM AngII, 50 minutes after pre-treatment with antagonists/inverse agonists (10 μM)): indistinguishable from that observed with CXCL8 only | effect of AngII only on CXCR2/Rluc8-Venus/mGsi BRET (AT1R-CXCR2 heteromer [2]; 100 nM AngII, 50 minutes after pre-treatment with antagonists/inverse agonists (10 μM)): completely inhibited | effect of both CXCL8 and AngII combined on AT1R/Rluc8-Venus/Kras BRET (AT1R-CXCR2 heteromer [3]; 10 nM CXCL8 and 100 nM AngII, FIG. 19B-19F): completely inhibited | effect of both CXCL8 and AngII combined on AT1R/Rluc8-Venus/Rab5 BRET (AT1R-CXCR2 heteromer [3]; 10 nM CXCL8 and 100 nM AngII, FIG. 20B-20F): completely inhibited | effect of AngII on AT1R/Rluc8-Venus/Kras BRET (AT1R-CXCR2 heteromer [3]; 100 nM AngII only, FIG. 19A): completely inhibited | effect of AngII on AT1R/Rluc8-Venus/Rab5 BRET (AT1R-CXCR2 heteromer [3]; 100 nM AngII only, FIG. 20A): completely inhibited
